Assay results from patent publication US20100113465A1, “7-AZASPIRO[3.5]NONANE-7-CARBOXAMIDE COMPOUNDS” (Pfizer Inc., priority 2008, published 2010).

Experiments:
human FAAH = target: T1, human FAAH (Homo sapiens, UniProt O00519); assay: FAAH assay, human FAAH enzyme inhibition (kinact/Ki); format: biochemical; settings: oleamide substrate 50 μM, 30° C., read-out: hFAAH kinact/Ki
T1 construct: made in house; host or cells: E. coli
T1 sequence (O00519 1-579): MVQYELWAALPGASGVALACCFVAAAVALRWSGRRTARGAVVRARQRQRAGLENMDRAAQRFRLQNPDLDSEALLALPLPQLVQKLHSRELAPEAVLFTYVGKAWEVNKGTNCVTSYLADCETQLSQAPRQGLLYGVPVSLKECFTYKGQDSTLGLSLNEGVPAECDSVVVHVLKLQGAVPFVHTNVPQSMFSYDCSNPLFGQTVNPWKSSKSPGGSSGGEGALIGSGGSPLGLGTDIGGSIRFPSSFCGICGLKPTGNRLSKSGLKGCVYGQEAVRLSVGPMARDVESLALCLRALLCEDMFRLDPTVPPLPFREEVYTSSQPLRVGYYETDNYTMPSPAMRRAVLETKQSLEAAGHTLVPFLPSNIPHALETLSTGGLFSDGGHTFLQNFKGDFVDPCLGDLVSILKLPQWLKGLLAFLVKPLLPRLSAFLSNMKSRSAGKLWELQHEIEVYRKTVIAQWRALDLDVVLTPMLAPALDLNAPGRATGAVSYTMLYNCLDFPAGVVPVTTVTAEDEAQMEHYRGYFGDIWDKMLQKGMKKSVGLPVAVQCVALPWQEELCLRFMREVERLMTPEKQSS
Description: (§1) The FAAH assay was carried out in 384-well clear polystyrene plates (Evergreen Scientific) in a total volume of 50 μl per well in a manner similar to that described by Mileni et al., Proc. Nat. Acad. Sci. 2008, 105, 12820-12824. All percents are by volume. Serial dilutions of compound were initially prepared in 100% DMSO, and then diluted two-fold into HPLC-grade H2O to give 50% DMSO. To each well, was placed the reaction mixture (40 μl) containing 1-4 nM FAAH, 50 mM NaPi, pH 7.4, 3 mM α-ketoglutarate, 0.15 mM NADH, 7.5 U/ml glutamate dehydrogenase, 2 mM ADP, 1 mM EDTA, and 0.1% Triton X-100 (The concentration shown for each component is the final concentration in the assay). To this mixture, was added 5 μl of a compound of Examples 1 to 56 at various concentrations in 50% DMSO (or 5 μl 50% DMSO for controls). This was immediately followed by the addition of 5 μl oleamide (500 μM) dissolved in 75% EtOH/25% DMSO and the reaction mixture was mixed for 1.5 min. The final concentrations of DMSO and EtOH in the assay were each 7.5%. The reactions were incubated at 30° C. and the absorbance at 340 nm was collected over a period of 90 min with readings taken in 30-second intervals using SpectraMax Plus^384 Microplate Spectrophotometer (Molecular Devices, Sunnyvale, Calif.). The human FAAH and rat FAAH used in the assay was prepared as described in the patent application WO 2006/067613 using wild-type E. coli cells transformed in St. Louis, Mo., U.S.A. The purity of the enzyme was greater than 98% based on an analysis by SDS-polyacrylamide gel electrophoresis followed by Coomassie Blue staining.
(§2) Reaction progress curves were corrected for the non-enzymatic oxidation of NADH by subtraction of absorbancies at each time point obtained from control reactions containing no FAAH enzyme. The loss of enzyme activity as a function of time is well-described by the following mathematical equation (1) for a mono-exponential decay: […]
(§3) where At represents the absorbance at time t, A0 represents the absorbance at time zero, and C represents a constant. Observed rates of enzyme inactivation (kobs) were determined from the non-linear reaction progress curves by fitting the corrected absorbancies to an equation for a mono-exponential decay using the third-party Microsoft Excel plug-in, XLfit (IDBS Limited). Secondary plots of kobs vs. inhibitor concentration were prepared from kobs values obtained from progress curves. Second-order rates for enzyme inactivation, expressed as kinact/Ki (M^−1s^−1), were calculated from the slopes from linear regression analysis of the secondary plot of kobs vs. inhibitor concentration as defined in following equation (2), where [I]<<Ki:
(§4) The concentration of substrate in the assay was equal to the Km for oleamide of 50 μM. Therefore, reported kinact/Ki values are obtained by multiplying resulting slopes by a factor of two (i.e. slope=kinact/(Ki*2)).

rat FAAH = target: T2, rat FAAH (Rattus norvegicus, UniProt P97612); assay: FAAH assay, rat FAAH enzyme inhibition (kinact/Ki); format: biochemical; settings: oleamide substrate 50 μM, 30° C., read-out: rFAAH kinact/Ki
T2 construct: made in house; host or cells: E. coli
T2 sequence (P97612 1-579): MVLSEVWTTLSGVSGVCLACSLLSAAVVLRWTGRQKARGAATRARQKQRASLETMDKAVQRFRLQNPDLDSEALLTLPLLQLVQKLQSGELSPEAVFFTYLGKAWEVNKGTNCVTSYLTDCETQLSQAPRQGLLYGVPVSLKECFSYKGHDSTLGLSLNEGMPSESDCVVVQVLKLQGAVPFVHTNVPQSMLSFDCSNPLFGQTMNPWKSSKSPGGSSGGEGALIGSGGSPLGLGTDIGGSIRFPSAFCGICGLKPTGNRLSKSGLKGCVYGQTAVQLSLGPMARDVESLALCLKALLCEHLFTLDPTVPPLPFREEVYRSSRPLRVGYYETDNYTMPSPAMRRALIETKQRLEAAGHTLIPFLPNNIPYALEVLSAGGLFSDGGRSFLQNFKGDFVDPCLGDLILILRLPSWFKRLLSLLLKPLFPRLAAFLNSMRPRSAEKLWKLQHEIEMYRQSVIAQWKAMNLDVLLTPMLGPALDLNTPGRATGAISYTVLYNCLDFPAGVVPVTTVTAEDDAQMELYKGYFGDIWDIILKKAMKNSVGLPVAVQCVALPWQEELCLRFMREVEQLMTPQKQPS
Description: as §1, §2, §3, §4

Male Sprague-Dawley Rats = assay: In vivo Complete Freund's Adjuvant (CFA) efficacy assay; parameters: species or system rat; key: (+) indicates the test compound was determined to be efficacious at 3 mpk, oral dosing; (−) indicates the test compound was determined to not be efficacious at 3 mpk, oral dosing; settings: 3 mpk, oral dosing; inhibition of allodynia (PWT) four hours postdose vs vehicle, p<0.05
Description: For additional information on the CFA efficacy assay, see Jayamanne et al., Brit. J. Pharmacol. 2006, 147, 281-288. Experiments were performed on adult Male Sprague-Dawley Rats (200 g-250 g). Inflammation was induced in the left hindpaw of the rat by an intra-plantar injection of 150 uL Complete Freund's Adjuvant (CFA) (SIGMA F5881). The CFA injection immediately induces local inflammation, paw swelling, and pain that persists for at least two weeks post-injection. Baseline paw withdrawal threshold (PWT) was measured to determine the percent inhibition of allodynia using a set of Von Frey Hairs on day 4 post injection as illustrated by the Dixon Up and Down Method (W. J. Dixon, Ann. Rev. Pharmacol. Toxicol. 1980, 20:441-462). […] Test compound was administered at a concentration of 3 mg/kg (mpk) orally with the dosing vehicle 5% N,N′-Dimethylacetamide (SIGMA D137510) and 95% (40% 2-hydroxypropyl-beta-cyclodextrin in water) (SIGMA H107). Following Dose administration PWT threshold was evaluated again at four hours postdose. The Sprague-Dawley rats used in this assay were purchased from Harlan, 8520 Allison Pointe Blvd., Indianapolis, Ind., 46250, U.S.A. Sprague-Dawley rats are an outbred breed of albino rats first produced by the Sprague Dawley farms in Madison, Wis., U.S.A.
Percent Inhibition of Allodynia was determined by the formula: […]
ΔPWT measurements were averaged for each treatment group and statistical comparisons between groups were made using ANOVA and Dunnett's two-tailed test. […]

Row | Structure (SMILES) | kinact/KI (human FAAH) | kinact/KI (rat FAAH) | CFA Efficacy (Male Sprague-Dawley Rats)
1 | Cc1noc(NC(=O)N2CCC3(CC2)CC(c2cccc(OC(F)(F)F)c2)C3)c1C [Example 4, N-(3,4-dimethylisoxazol-5-yl)-2-[3-(trifluoromethoxy)phenyl]-7-azaspiro[3.5]nonane-7-carboxamide] | 2830 M⁻¹ s⁻¹ | 3860 M⁻¹ s⁻¹ | (+)
2 | Cc1cc(C2CC3(CCN(C(=O)Nc4onc(C)c4C)CC3)C2)ccc1F [Example 12, N-(3,4-dimethylisoxazol-5-yl)-2-(4-fluoro-3-methylphenyl)-7-azaspiro[3.5]nonane-7-carboxamide] | 3950 M⁻¹ s⁻¹ | 2990 M⁻¹ s⁻¹ | (+)
3 | Cc1noc(NC(=O)N2CCC3(CC2)CC(c2cccc(Cl)c2)C3)c1C [Example 13, 2-(3-chlorophenyl)-N-(3,4-dimethylisoxazol-5-yl)-7-azaspiro[3.5]nonane-7-carboxamide] | 3940 M⁻¹ s⁻¹ | 3560 M⁻¹ s⁻¹ | (+)
4 | Cc1noc(NC(=O)N2CCC3(CC2)CC(c2ccc(F)c(Cl)c2)C3)c1C [Example 14, 2-(3-chloro-4-fluorophenyl)-N-(3,4-dimethylisoxazol-5-yl)-7-azaspiro[3.5]nonane-7-carboxamide] | 4190 M⁻¹ s⁻¹ | 5820 M⁻¹ s⁻¹ | (+)
5 | Cc1noc(NC(=O)N2CCC3(CC2)CC(c2noc(-c4ccc(OC(F)(F)F)cc4)n2)C3)c1C [Example 15, N-(3,4-dimethylisoxazol-5-yl)-2-{5-[4-(trifluoromethoxy)phenyl]-1,2,4-oxadiazol-3-yl}-7-azaspiro[3.5]nonane-7-carboxamide] | 3460 M⁻¹ s⁻¹ | 1730 M⁻¹ s⁻¹ | (+)
6 | Cc1cc(F)cc(C2CC3(CCN(C(=O)Nc4onc(C)c4C)CC3)C2)c1 [Example 18, N-(3,4-dimethylisoxazol-5-yl)-2-(3-fluoro-5-methylphenyl)-7-azaspiro[3.5]nonane-7-carboxamide] | 2640 M⁻¹ s⁻¹ | 1560 M⁻¹ s⁻¹ | (−)
7 | Cc1noc(NC(=O)N2CCC3(CC2)CC(c2cccc(F)c2F)C3)c1C [Example 19, 2-(2,3-difluorophenyl)-N-(3,4-dimethylisoxazol-5-yl)-7-azaspiro[3.5]nonane-7-carboxamide] | 2350 M⁻¹ s⁻¹ | 1370 M⁻¹ s⁻¹ | (+)
8 | Cc1noc(NC(=O)N2CCC3(CC2)CC(c2ccc(OCc4ccc(F)cc4)cc2)C3)c1C [Example 40, N-(3,4-dimethylisoxazol-5-yl)-2-{4-[(4-fluorobenzyl)oxy]phenyl}-7-azaspiro[3.5]nonane-7-carboxamide] | 3050 M⁻¹ s⁻¹ | 1540 M⁻¹ s⁻¹ | –
9 | Cc1noc(NC(=O)N2CCC3(CC2)CC(c2ccc(F)c(Cl)c2)C3C)c1C (stereo not drawn) [Example 41, 2-(3-chloro-4-fluorophenyl)-N-(3,4-dimethylisoxazol-5-yl)-1-methyl-7-azaspiro[3.5]nonane-7-carboxamide] | 354 M⁻¹ s⁻¹ | 405 M⁻¹ s⁻¹ | –
10 | Cc1noc(NC(=O)N2CCC3(CC(c4ccc(F)c(Cl)c4)C3)C(C)C2)c1C (stereo not drawn) [Example 42, 2-(3-chloro-4-fluorophenyl)-N-(3,4-dimethylisoxazol-5-yl)-5-methyl-7-azaspiro[3.5]nonane-7-carboxamide] | 991 M⁻¹ s⁻¹ | 1360 M⁻¹ s⁻¹ | –
11 | COC1(c2ccc(F)c(Cl)c2)CC2(CCN(C(=O)Nc3onc(C)c3C)CC2)C1 [Example 43, 2-(3-chloro-4-fluorophenyl)-N-(3,4-dimethylisoxazol-5-yl)-2-methoxy-7-azaspiro[3.5]nonane-7-carboxamide] | 494 M⁻¹ s⁻¹ | 247 M⁻¹ s⁻¹ | –
12 | Cc1noc(NC(=O)N2CCC3(CC2)CC(O)(c2ccc(F)c(Cl)c2)C3)c1C [Example 44, 2-(3-chloro-4-fluorophenyl)-N-(3,4-dimethylisoxazol-5-yl)-2-hydroxy-7-azaspiro[3.5]nonane-7-carboxamide] | 945 M⁻¹ s⁻¹ | 1340 M⁻¹ s⁻¹ | –
13 | O=C(Nc1nnc(-c2cccc(Cl)c2)o1)N1CCC2(CC1)CC(c1cccc(OC(F)(F)F)c1)C2 [Example 51, N-[5-(3-chlorophenyl)-1,3,4-oxadiazol-2-yl]-2-[3-(trifluoromethoxy)phenyl]-7-azaspiro[3.5]nonane-7-carboxamide] | 2520 M⁻¹ s⁻¹ | 5460 M⁻¹ s⁻¹ | –
14 | CCn1nnnc1NC(=O)N1CCC2(CC1)CC(c1cccc(OC(F)(F)F)c1)C2 [Example 52, N-(1-ethyl-1H-tetrazol-5-yl)-2-[3-(trifluoromethoxy)phenyl]-7-azaspiro[3.5]nonane-7-carboxamide] | 6940 M⁻¹ s⁻¹ | 3420 M⁻¹ s⁻¹ | –
15 | Cn1nnnc1NC(=O)N1CCC2(CC1)CC(c1cccc3c1OC(F)(F)O3)C2 [Example 55, 2-(2,2-difluoro-1,3-benzodioxol-4-yl)-N-(1-methyl-1H-tetrazol-5-yl)-7-azaspiro[3.5]nonane-7-carboxamide] | 10200 M⁻¹ s⁻¹ | 2040 M⁻¹ s⁻¹ | –
16 | Cn1nnnc1NC(=O)N1CCC2(CC1)CC(c1cccc(F)c1F)C2 [Example 56, 2-(2,3-difluorophenyl)-N-(1-methyl-1H-tetrazol-5-yl)-7-azaspiro[3.5]nonane-7-carboxamide] | 10300 M⁻¹ s⁻¹ | 1940 M⁻¹ s⁻¹ | –
